According to EPA's ToxValDB 9.5 (doi:10.2903/j.efsa.2009.195r):
Values after ≈ are worked out from the molar mass of the structure shown.

How the values were obtained:
Anas platyrhynchos = settings: oral, mortality
Apis mellifera = settings: acute; duration: 48 hours; oral; unspecified; mortality
Daphnia magna = settings: chronic/long-term; duration: 21 days; reproduction

COC(=O)c1cccc(C)c1S(=O)(=O)NC(=O)Nc1nc(OCC(F)(F)F)nc(N(C)C)n1 [Triflusulfuron-methyl]
LD50 (Anas platyrhynchos; acute, unspecified): > 2250 mg/kg-day
LC50 (Anas platyrhynchos; short-term, feed): > 1540 mg/kg-day
LD50 (Apis mellifera): > 100 µg/piece
LD50 (Colinus virginianus; acute, oral, mortality): > 2250 mg/kg-day
NOEC (Colinus virginianus; reproduction developmental): 27.6 mg/kg-day
NOEC (Daphnia magna): 11 mg/L
LC50 (Oncorhynchus mykiss; acute, duration: 96 hours, mortality): 730 mg/L (≈ 1480 µM)
NOEC (Oncorhynchus mykiss; chronic/long-term, duration: 97 days, growth): 57.7 mg/L
LD50 (Rattus norvegicus; acute, oral, mortality): > 5000 mg/kg-day
NOAEL (Rattus norvegicus; chronic, duration: 2 years, oral, diet, body weight): 4.06 mg/kg-day
NOAEL (Rattus norvegicus; developmental, development): 120 mg/kg-day
NOAEL (Rattus norvegicus; reproduction developmental, body weight): 5.8 mg/kg-day
NOAEL (Rattus norvegicus; subchronic, duration: 90 days, oral, body weight): 6.6 mg/kg-day
LC50 (Tagia sp.; acute, duration: 14 days, mortality): 1000 mg/kg
NOEC (Tagia sp.; chronic/long-term, duration: 56 days): 250 mg/kg
